For assay [1], the target named is human sodium channel NaV1.2 (Homo sapiens, UniProt Q99250). Put plainly: NaV1.2 inhibition, automated patch-clamp (Q-Patch HTX), slow inactivated state (state C). The assay is classed as cell-based. The following applies: hNaV1.2 CHO cells, slow inactivated state; for inhibition at 1 µM: 1 μM compound, read-out: NaV1.2 (% inh), 1 μM; for IC50: read-out: NaV1.2 IC50; for inhibition at 10 µM: 10 μM compound, read-out: NaV1.2 (% inh), 10 μM. From the text: In vitro method for NaV1.2 inhibition assays: The methods utilized to assess the inhibitory activity of compounds on NaV1.2 were based on the methods described by Liu et al. [Liu Y, Beck E J, & Flores C M (2011): Validation of a patch clamp screening protocol that simultaneously measures compound activity in multiple states of the voltage-gated sodium channel Nav1.2. Assay Drug Development Technology 9, 628-634]. For these electrophysiology assays, a cell line (Chinese Hamster Ovarian K-1 cells (CHO K-1)) engineered to stably express human sodium channel NaV1.2 was purchased from Millipore Corporation (catalog no. CYL3023). The electrophysiology measurements were performed using automated patch-clamp methods on a Q-Patch HTX instrument by scientists at Evotec AG under contract with Sunovion.
The solutions utilized for the Qpatch experiments were similar buffered solutions to those described by Liu et al. [Liu Y, Beck E J, & Flores C M (2011)]. The extracellular solution contained 140 millimolar sodium chloride, 4 millimolar potassium chloride, 2 millimolar calcium chloride, 1 millimolar magnesium chloride, 10 millimolar 4-(2-hydroxyethyl)-1-piperazineethanesulfonic acid (HEPES), and 10 millimolar glucose (pH adjusted to 7.4 with sodium hydroxide). The intracellular solution contained 100 millimolar cesium fluoride, 45 millimolar cesium chloride, 10 millimolar HEPES, 5 millimolar ethylene glycol tetraacetic acid (EGTA), and 5 millimolar glucose (pH adjusted to 7.2 with cesium hydroxide).
The biophysical experiments of Lui et al. [Liu Y, Beck E J, & Flores C M (2011)] were replicated to assess the fast, slow and total inactivation characteristics of the human Nav1.2 channel
Based upon results from studies of the fast, slow and total inactivation characteristics of the human Nav1.2 channel, a voltage protocol involving a sequence of consecutive pulses of current was used to measure channel activity in several states [Liu Y, Beck E J, & Flores C M (2011)]. The monolayer of CHO K-1 cells stably expressing human sodium channel NaV1.2 (hNaV1.2 CHO cells) was maintained in the Qpatch instrument at a potential of −100 millivolts (mV) except when the voltage protocol was being executed. The first pulse in the protocol involved a 100 millisecond depolarization to 0 mV to enable measurement of channel availability in the closed state (state A). The potential was then maintained at −90 mV for 15 milliseconds, followed by a five millisecond period of depolarization to 0 mV to enable measurement of channel availability after partial recovery from fast inactivation (state B). Next, the potential was maintained at −90 mV for 300 milliseconds, followed by ten seconds at −50 mV, 15 milliseconds at −90 mV, and finally another five millisecond period of depolarization to 0 mV to enable measurement of channel availability after additional recovery from fast inactivation and significant entry into the slow inactivated state (state C). Finally, after an additional 300 millisecond period at −90 mV, another five millisecond period of depolarization to 0 mV was employed to enable measurement of channel availability after partial recovery from the slow inactivated state (state D). Measurements of activity at state C were used to assess the activity of the NaV1.2 channel in the slow inactivated state. Comparison of activity after addition of test compounds or reference compounds with activity after addition of vehicle only provided a measure of percent remaining activity from which percent inhibition was calculated. […] A slight modification of this protocol was utilized to provide measurements as a function of compound concentration, which enabled IC50 values to be determined. IC50 values were calculated by non-linear least squares regression of the data (percent inhibition of ion channel NaV1.2 activity in the slow inactivated state) onto equation (1): % inhibition=100%/(1+(IC50/[compound]) equation (1)
J Pharmacol Exp Ther. 2008 July; 326(1):89-99.].
A general note: Patch clamp records ionic current or voltage across a cell membrane.

Assay [2] has as its target T1, recombinant human serotonin receptor 5-HT2A (Homo sapiens, UniProt P28223).
T1 construct: expressed in transfected cells; method B: loaded with Ca2+ dye
Put plainly: 5-HT2A antagonist Ca2+ assay in CHO-K1 cells (method A aequorin luminescence / method B FLIPR fluorescence). The following applies: antagonist mode vs EC80 of reference agonist, method A or B, read-out: 5HT2A IC50. It is filed as cell-based. In outline:
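Method A: CHO-K1 cells co-expressing human 5-HT2A and mitochondrial apoaequorin were given reference agonist at EC80 15 min after compound, with luminescence read. Method B: dye-loaded 5-HT2A CHO-K1 cells were pretreated with compound, then given serotonin at EC80, with FLIPR fluorescence read. IC50s came from nonlinear fits of percent inhibition.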

T1 sequence (P28223 whole entry): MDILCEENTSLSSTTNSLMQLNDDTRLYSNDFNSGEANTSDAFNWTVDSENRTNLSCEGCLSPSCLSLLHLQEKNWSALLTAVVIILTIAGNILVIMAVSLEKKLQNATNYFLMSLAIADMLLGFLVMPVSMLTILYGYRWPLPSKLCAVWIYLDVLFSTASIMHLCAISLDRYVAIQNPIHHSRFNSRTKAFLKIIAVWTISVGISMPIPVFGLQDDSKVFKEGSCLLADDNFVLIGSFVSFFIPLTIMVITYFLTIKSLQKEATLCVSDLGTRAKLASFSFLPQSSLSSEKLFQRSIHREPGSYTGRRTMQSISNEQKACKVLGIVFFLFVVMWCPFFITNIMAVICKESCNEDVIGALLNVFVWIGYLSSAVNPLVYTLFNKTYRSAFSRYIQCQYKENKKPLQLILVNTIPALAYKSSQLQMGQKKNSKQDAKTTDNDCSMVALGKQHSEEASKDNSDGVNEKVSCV
Sequence of human sodium channel NaV1.2 (Q99250 whole entry): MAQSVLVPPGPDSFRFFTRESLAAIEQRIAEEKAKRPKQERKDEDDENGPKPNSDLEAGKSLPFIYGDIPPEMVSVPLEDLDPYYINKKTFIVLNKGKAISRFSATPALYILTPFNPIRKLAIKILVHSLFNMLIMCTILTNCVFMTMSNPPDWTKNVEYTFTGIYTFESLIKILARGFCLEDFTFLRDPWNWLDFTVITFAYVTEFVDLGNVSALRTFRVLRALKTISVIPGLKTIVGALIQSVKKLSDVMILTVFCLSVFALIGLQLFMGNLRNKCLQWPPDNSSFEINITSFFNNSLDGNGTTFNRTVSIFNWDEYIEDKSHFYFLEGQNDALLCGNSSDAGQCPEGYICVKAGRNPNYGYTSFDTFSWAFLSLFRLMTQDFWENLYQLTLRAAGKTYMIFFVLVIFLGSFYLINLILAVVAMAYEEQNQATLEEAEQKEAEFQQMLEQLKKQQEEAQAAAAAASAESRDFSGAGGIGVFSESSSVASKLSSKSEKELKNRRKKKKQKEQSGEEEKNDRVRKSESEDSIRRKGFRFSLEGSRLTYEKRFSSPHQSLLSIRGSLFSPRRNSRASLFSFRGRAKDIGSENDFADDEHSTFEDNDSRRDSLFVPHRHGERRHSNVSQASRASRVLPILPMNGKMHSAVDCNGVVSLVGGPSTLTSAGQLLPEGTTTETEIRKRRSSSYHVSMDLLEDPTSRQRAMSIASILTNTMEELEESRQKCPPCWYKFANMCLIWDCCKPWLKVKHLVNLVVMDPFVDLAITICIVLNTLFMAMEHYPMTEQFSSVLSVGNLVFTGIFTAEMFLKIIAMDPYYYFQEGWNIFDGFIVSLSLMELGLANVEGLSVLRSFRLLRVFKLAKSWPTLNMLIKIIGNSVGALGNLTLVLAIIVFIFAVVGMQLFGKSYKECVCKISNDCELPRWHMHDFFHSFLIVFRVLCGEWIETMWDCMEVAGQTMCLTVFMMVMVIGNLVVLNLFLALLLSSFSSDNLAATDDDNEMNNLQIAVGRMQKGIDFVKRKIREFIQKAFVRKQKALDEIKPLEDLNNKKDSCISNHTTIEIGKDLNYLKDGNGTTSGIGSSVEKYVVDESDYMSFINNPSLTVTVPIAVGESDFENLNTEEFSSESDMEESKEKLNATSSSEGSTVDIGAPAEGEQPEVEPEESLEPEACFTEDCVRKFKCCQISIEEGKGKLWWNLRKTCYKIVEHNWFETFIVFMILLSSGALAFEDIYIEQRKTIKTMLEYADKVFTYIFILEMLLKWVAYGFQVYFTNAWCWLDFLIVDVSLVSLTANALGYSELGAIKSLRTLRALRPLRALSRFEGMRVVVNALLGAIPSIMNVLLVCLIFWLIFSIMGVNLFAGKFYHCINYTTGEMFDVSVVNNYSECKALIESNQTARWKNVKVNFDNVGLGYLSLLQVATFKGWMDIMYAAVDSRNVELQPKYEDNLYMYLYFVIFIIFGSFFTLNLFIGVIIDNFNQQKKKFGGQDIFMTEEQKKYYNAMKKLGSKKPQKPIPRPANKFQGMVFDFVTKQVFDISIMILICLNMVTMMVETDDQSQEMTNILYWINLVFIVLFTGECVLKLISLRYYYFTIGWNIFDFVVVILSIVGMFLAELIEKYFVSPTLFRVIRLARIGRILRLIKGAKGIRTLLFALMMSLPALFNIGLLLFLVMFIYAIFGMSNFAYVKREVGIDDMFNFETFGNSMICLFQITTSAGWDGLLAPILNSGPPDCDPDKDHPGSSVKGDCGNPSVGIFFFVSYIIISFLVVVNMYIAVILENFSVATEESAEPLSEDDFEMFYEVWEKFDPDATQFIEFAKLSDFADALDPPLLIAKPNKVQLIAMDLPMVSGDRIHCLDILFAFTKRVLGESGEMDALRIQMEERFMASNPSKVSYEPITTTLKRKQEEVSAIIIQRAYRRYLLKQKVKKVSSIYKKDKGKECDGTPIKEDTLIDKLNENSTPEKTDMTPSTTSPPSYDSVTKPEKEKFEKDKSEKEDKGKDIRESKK

In the case of `CN1CCN(CC2CCc3ccccc32)CC(Oc2ccc(F)cc2)C1` (centres unmarked) [Example 277, 1-((2,3-dihydro-1H-inden-1-yl)methyl)-6-(4-fluorophenoxy)-4-methyl-1,4-diazepane], the inhibition at 1 µM in assay [1] came to 31%. The half-inhibitory concentration (IC50) in assay [2] came out at 100 nM.
`OC(COC1CCCCC1)CN1[C@@H]2C[C@H]1CN(c1ccccc1)C2` (stereo partly drawn) [Example 281, 1-(cyclohexyloxy)-3-((1R,5S)-3-phenyl-3,6-diazabicyclo[3.1.1]heptan-6-yl)propan-2-ol]: the values for the concentration for half-maximal inhibition (IC50) in assay [1] and in assay [2] were 1790 nM and 1360 nM, respectively.
As for `c1ccc2c(c1)CCC2CN1CCC2(CCc3cccnc3O2)CC1` (centres unmarked) [Example 406, 1-((2,3-dihydro-1H-inden-1-yl)methyl)-3′,4′-dihydrospiro[piperidine-4,2′-pyrano[2,3-b]pyridine]], in assay [1], the inhibition at 1 µM stood at 7%. Further, the IC50 in assay [2] was found to be 40 nM.
In the case of `COc1ccccc1O[C@@H]1CCN(CC2Cc3ccccc3C2)[C@H](C)C1` [Example 140, (2R,4R)-1-((2,3-dihydro-1H-inden-2-yl)methyl)-4-(2-methoxyphenoxy)-2-methylpiperidine], the IC50 in assay [1] is 510 nM; in assay [2], 630 nM.
In the same order, the values of `COc1cccc(OC2CCN(CCCN3CCc4ccccc4C3=O)CC2)c1` [Example 221, 2-(3-(4-(3-methoxyphenoxy)piperidin-1-yl)propyl)-3,4-dihydroisoquinolin-1(2H)-one] are 1000 nM and 980 nM.
For the compound `Fc1ccc(OC2CCN(CCC3COCc4ccccc43)CC2)cc1` (centres unmarked) [Example 184, 4-(4-fluorophenoxy)-1-(2-(isochroman-4-yl)ethyl)piperidine], in assay [1], the inhibition at 1 µM was 35%. Also, the concentration for half-maximal inhibition (IC50) in assay [2] is 80 nM.
In the case of `Clc1cccc(N2CCN(Cn3c(COc4ccccc4)nc4ccccc43)CC2)c1` [Example 61, 1-((4-(3-chlorophenyl)piperazin-1-yl)methyl)-2-(phenoxymethyl)-1H-benzo[d]imidazole], the inhibition at 10 µM in assay [1] came out at 8%. In addition, the IC50 in assay [2] was 200 nM.
`O[C@H](COC1CCCCC1)CN1CCC2(CCN(c3ccccc3)C2)C1` (stereo partly drawn) [Example 345, (2S)-1-(cyclohexyloxy)-3-(7-phenyl-2,7-diazaspiro[4.4]nonan-2-yl)propan-2-ol]: the figures for the IC50 in assay [1] and in assay [2] were 1900 nM and 240 nM, respectively.
The like results for `COc1ccccc1O[C@@H]1CCN(CC2Cc3ccccc3C2)[C@@H](C)C1` [Example 142, (2S,4R)-1-((2,3-dihydro-1H-inden-2-yl)methyl)-4-(2-methoxyphenoxy)-2-methylpiperidine] were, in that order, 910 nM and 300 nM.
The like results for `Fc1ccc(OC2COC3(C2)CN(CC2Cc4cccnc4C2)C3)cc1` (centres unmarked) [Example 370, 2-((6,7-dihydro-5H-cyclopenta[b]pyridin-6-yl)methyl)-7-(4-fluorophenoxy)-5-oxa-2-azaspiro[3.4]octane] were, in that order, 2010 nM and 100 nM.
Regarding `OC(COC1CCCCC1)CN1C[C@H]2C[C@@H]1CN(Cc1ccccc1)C2` (stereo partly drawn) [Example 318, 1-((1S,5R)-3-benzyl-3,6-diazabicyclo[3.2.1]octan-6-yl)-3-(cyclohexyloxy)propan-2-ol], the inhibition at 10 µM in assay [1] was 48%. Besides, the IC50 in assay [2] is over 5300 nM.
For the compound `COc1ccccc1O[C@@H]1CCN(CC2Cc3ccccc3C2)C[C@@H]1C` [Example 144, (3S,4R)-1-((2,3-dihydro-1H-inden-2-yl)methyl)-4-(2-methoxyphenoxy)-3-methylpiperidine], the half-maximal inhibitory concentration (IC50) in assay [1] came to 540 nM; in assay [2] it was 270 nM.
`Fc1ccc(OC2CCN(CCC3Cc4ccccc4C3)CC2)cc1` [Example 178, 1-(2-(2,3-dihydro-1H-inden-2-yl)ethyl)-4-(4-fluorophenoxy)piperidine]: the values for the 50% inhibitory concentration (IC50) in assay [1] and in assay [2] were 1900 nM and 30 nM, respectively.
Consider `OC1(CN2CC[C@@H](Oc3ccc(F)cc3)C2)COCc2ccccc21` (stereo partly drawn) [Example 9, 4-(((R)-3-(4-fluorophenoxy)pyrrolidin-1-yl)methyl)isochroman-4-ol], for which, in assay [1], the inhibition at 1 µM turned out to be 1%. In addition, the 50% inhibitory concentration (IC50) in assay [2] was determined as 600 nM.
Consider `N#Cc1ccc(OCCN2CCN(c3nsc4ccccc34)CC2)cc1` [Example 67, 4-(2-(4-(benzo[d]isothiazol-3-yl)piperazin-1-yl)ethoxy)benzomtnle], for which, in assay [1], the inhibition at 10 µM was 85%. Besides, the IC50 in assay [2] came out at 10 nM.
In the case of `c1ccc(N2CCN(CC3CCc4ccccc43)CC2)cc1` (centres unmarked) [Example 55, 1-((2,3-dihydro-1H-inden-1-yl)methyl)-4-phenylpiperazine], the concentration for half-maximal inhibition (IC50) in assay [1] is 4120 nM; in assay [2], 10 nM.
The like results for `CN(C)c1ccc2c(c1)C(CN1CCC(Oc3ccc(F)cc3)CC1)CC2` (centres unmarked) [Example 116, 3-((4-(4-fluorophenoxy)piperidin-1-yl)methyl)-N,N-dimethyl-2,3-dihydro-1H-inden-5-amine] were, in that order, 2340 nM and 10 nM.
In the case of `N#Cc1ccccc1OC1CCN(CC2Cc3cccnc3C2)CC1` (centres unmarked) [Example 138, 2-((1-((6,7-dihydro-5H-cyclopenta[b]pyridin-6-yl)methyl)piperidin-4-yl)oxy) benzonitrile], in assay [1], the inhibition at 1 µM amounted to 10%. Further, the IC50 in assay [2] is 130 nM.
The like results for `Fc1ccc(OC2CCN(CC3Cc4ccccc4C3)CC2)cc1` [Example 154, 1-((2,3-dihydro-1H-inden-2-yl)methyl)-4-(4-fluorophenoxy)piperidine] were, in that order, 35% and 170 nM.
As for `c1ccc(OC2COC3(C2)CN(CC2CCc4ccccc42)C3)cc1` (single isomer, unassigned) [Compound 362, 2-((2,3-dihydro-1H-inden-1-yl)methyl)-7-phenoxy-5-oxa-2-azaspiro[3.4]octane], the 50% inhibitory concentration (IC50) worked out at 6370 nM in assay [1] and 500 nM in assay [2].
For the compound `O=C1c2ccccc2CCCN1CCCN1CCC(Oc2ccc(F)cc2)CC1` [Example 223, 2-(3-(4-(4-fluorophenoxy)piperidin-1-yl)propyl)-2,3,4,5-tetrahydro-1H-benzo[c]azepin-1-one], the inhibition at 10 µM in assay [1] was found to be 68%. Further, the IC50 in assay [2] was 30 nM.
The like results for `c1ccc(OC2CCN(CCOc3ccc4cccnc4c3)CC2)cc1` [Example 232, 7-(2-(4-phenoxypiperidin-1-yl)ethoxy)quinoline] were, in that order, 76% and 220 nM.
As for `COc1cccc(CCN2CCC3(CCc4ccccc4O3)CC2)c1` [Example 429, 1′-(3-methoxyphenethyl) spiro[chromane-2,4′-piperidine]], the IC50 in assay [1] is 1340 nM; in assay [2], 370 nM.
In the case of `O=C1c2ccncc2CCN1CCN1CCC(Oc2ccc(F)cc2)CC1` [Example 203, 2-(2-(4-(4-fluorophenoxy)piperidin-1-yl)ethyl)-3,4-dihydro-2,6-naphthyridin-1(2H)-one], the inhibition at 10 µM in assay [1] amounted to 14%. The IC50 in assay [2] was 70 nM.
As for `Fc1ccc(OC2CCN(CC3Cc4ccncc4C3)CC2)cc1` (centres unmarked) [Example 158, 6-((4-(4-fluorophenoxy)piperidin-1-yl)methyl)-6,7-dihydro-5H-cyclopenta[c]pyridine], the inhibition at 1 µM in assay [1] was -15%. Besides, the IC50 in assay [2] was determined as 150 nM.

The IC50 is the concentration needed to halve the response being measured.
